From PubChem BioAssay AID2060494 (Molecular Pharmacology Branch, DTP, NCI, 2025)

System: 435261-313-R-J1-PDC complex spheroid viability
Assay: Anticancer human tumor 435261-313-R-J1-PDC patient-derived colon adenocarcinoma cell line growth inhibition [GQUAD]
Conditions: for IC50: curve of first compound; for viability, T/C: stronger effect = lower value
Source text: DNA G-quadruplex Stabilizer Agents in Combinations in Complex Spheroids
A high-throughput screen of multi-cell type tumor spheroids was designed to identify active combinations of DNA G-quadruplex stabilizer agents and targeted small molecules. Complex spheroids include a stromal component modeled by human endothelial cells (HUVEC) and fibroblasts modeled by human mesenchymal stem cells (MSCs). The concentration ranges selected for each drug and investigational agent were based upon clinically achievable concentrations if the clinical Cmax of the agent was known.
Compounds. The drugs and investigational agents: pidnarulex (CX-5461; NSC782164), APTO-253 (NSC789042), BRACO-19 (NSC847499), peposertib (NSC802822), ceralasertib (NSC780249), elimusertib (NSC800525), camonsertib (NSC841442), AZD-1390 (NSC803789), olaparib (NSC753686), talazoparib (NSC767125), ART-558 (NSC835418), sotorasib (NSC818433), MRTX-1133 (NSC836407), SN-38 (NSC673596), topotecan (NSC609699), etoposide (NSC141540), doxorubicin (NSC123127), gemcitabine (NSC613327), 5-fluorouracil (NSC19893), paclitaxel (NSC125973), vemurafenib (NSC761431), panobinostat (NSC761190), R-306465 (JNJ-16241199; NSC773264), adavosertib (NSC754352), TP-3654 (NSC805149), carboplatin (NSC241240), KSQ-4279 (NSC840948), and staurosporine (NSC755774) were obtained from the National Cancer Institute (NCI) Developmental Therapeutics Program Chemical Repository (34). The FDA-approved anticancer drug set is available from the NCI Developmental Therapeutics Program. […] The stock solutions were prepared in dimethyl sulfoxide (DMSO, Sigma-Aldrich, St. Louis, MO, cat. D2650) at 800-fold the tested concentration and stored at -70 degrees C prior to their use. All drugs and investigational agents were tested over a range starting from a high concentration at or near the clinical Cmax and decreasing in half-log increments. If the clinical Cmax for an agent had not been determined, the highest concentration tested was 10 microM.
2.3 Cell Culture. All cells were maintained in an incubator at 37 degrees C and 5% CO2 with 95% humidity. The PDC lines were cultured according to standard operating procedures established by the NCI PDMR. All PDCs were thawed and cultured in Matrigel-coated flasks prepared with a working solution of 1X Ham's F-12 nutrient mix, without supplementation (Invitrogen, cat. 11765054), 100 U/mL penicillin-streptomycin (Invitrogen, cat. 15140122), and 2.5% Matrigel (Corning Inc., cat. 354248) for the first three passages. The 857933-349-R-J2-PDC line was cultured in 6C/Colon 1B media, which includes advanced DMEM/F-12 (Thermo Fisher Scientific, cat. 12634028), 10 mM HEPES (Thermo Fisher Scientific, cat. 15630080), 1X GlutaMAX supplement (Thermo Fisher Scientific, cat. 35050061), 0.1 mg/mL primocin (InvivoGen, cat. ant-pm-2), 10% defined fetal bovine serum, heat inactivated (HyClone Laboratories Inc., cat. SH30070.03HI), 50% L-WRN conditioned media (ATCC, cat. CRL-3276), 1.25 mM N-Acetyl-L-cysteine (Sigma-Aldrich, cat. A9165), 10 mM nicotinamide (Sigma-Aldrich, cat. N0636), 1X B-27 supplement (Thermo Fisher Scientific, cat. 17504044), 1X N-2 supplement (Thermo Fisher Scientific, cat. 17502048), 10 microM Y-27632 dihydrochloride (Tocris Bioscience, cat. 1254), and 50 ng/mL human EGF recombinant protein (Thermo Fisher Scientific, cat. PHG0311). The 485176-168-R4-J1-PDC line was cultured in Panc media, which includes all 6C/Colon 1B media components plus 100 ng/mL human FGF-10 (Thermo Fisher Scientific, cat. 100-26), 500 nM SB-431542 (Selleckchem, cat. S1067), and gastrin (Tocris, cat. 3006).
[…]
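Further: spheroids exposed to the agents for seven days before readout.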
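Wherever viability, T/C is given: percent of vehicle control viability with DMSO wells as 100%.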

## CC1COCCN1c1cc(C2(O)CC3CCC(C2)O3)c2cnn(-c3ccn[nH]3)c2n1 (configuration not stated) + Cc1cnc(CNC(=O)c2c(=O)c3ccc(N4CCCN(C)CC4)nc3n3c2sc2ccccc23)cn1
Second compound 0.0316 µM
  IC50: 95.2 nM
Second compound 0.1 µM
  IC50: 105 nM
Second compound 0.316 µM
  IC50: 48.5 nM
Second compound 1 µM
  IC50: < 31.6 nM
Second compound 3.16 µM
  IC50: < 31.6 nM
Second compound 10 µM
  IC50: < 31.6 nM
Second compound 0.0316 µM, first compound 0.0316 µM
  viability, T/C: 59.8%
Second compound 0.0316 µM, first compound 0.1 µM
  viability, T/C: 48%
Second compound 0.0316 µM, first compound 0.316 µM
  viability, T/C: 42.8%
Second compound 0.0316 µM, first compound 1 µM
  viability, T/C: 24.6%
Second compound 0.0316 µM, first compound 3.16 µM
  viability, T/C: 23.5%
Second compound 0.0316 µM, first compound 10 µM
  viability, T/C: 11.2%
Second compound 0.1 µM, first compound 0.0316 µM
  viability, T/C: 49.5%
Second compound 0.1 µM, first compound 0.1 µM
  viability, T/C: 57.9%
Second compound 0.1 µM, first compound 0.316 µM
  viability, T/C: 38.2%
Second compound 0.1 µM, first compound 1 µM
  viability, T/C: 26.6%
Second compound 0.1 µM, first compound 3.16 µM
  viability, T/C: 22.3%
Second compound 0.1 µM, first compound 10 µM
  viability, T/C: 10.1%
Second compound 0.316 µM, first compound 0.0316 µM
  viability, T/C: 51.5%
Second compound 0.316 µM, first compound 0.1 µM
  viability, T/C: 47.9%
Second compound 0.316 µM, first compound 0.316 µM
  viability, T/C: 37.2%
Second compound 0.316 µM, first compound 1 µM
  viability, T/C: 27.7%
Second compound 0.316 µM, first compound 3.16 µM
  viability, T/C: 18.8%
Second compound 0.316 µM, first compound 10 µM
  viability, T/C: 8.98%
Second compound 1 µM, first compound 0.0316 µM
  viability, T/C: 38.5%
Second compound 1 µM, first compound 0.1 µM
  viability, T/C: 36.1%
Second compound 1 µM, first compound 0.316 µM
  viability, T/C: 23.1%
Second compound 1 µM, first compound 1 µM
  viability, T/C: 15.7%
Second compound 1 µM, first compound 3.16 µM
  viability, T/C: 11.3%
Second compound 1 µM, first compound 10 µM
  viability, T/C: 4.12%
Second compound 3.16 µM, first compound 0.0316 µM
  viability, T/C: 12.3%
Second compound 3.16 µM, first compound 0.1 µM
  viability, T/C: 14.2%
Second compound 3.16 µM, first compound 0.316 µM
  viability, T/C: 6.28%
Second compound 3.16 µM, first compound 1 µM
  viability, T/C: 0.12%
Second compound 3.16 µM, first compound 3.16 µM
  viability, T/C: 0.15%
Second compound 3.16 µM, first compound 10 µM
  viability, T/C: 0.09%
Second compound 10 µM, first compound 0.0316 µM
  viability, T/C: 0.8%
Second compound 10 µM, first compound 0.1 µM
  viability, T/C: 0.14%
Second compound 10 µM, first compound 0.316 µM
  viability, T/C: 0.17%
Second compound 10 µM, first compound 1 µM
  viability, T/C: 0.18%
Second compound 10 µM, first compound 3.16 µM
  viability, T/C: 0.19%
Second compound 10 µM, first compound 10 µM
  viability, T/C: 0.13%
